Results from patent US20070155803A1, “Protease inhibitors” (ProZymex A/S, priority 2003, published 2007).
Square brackets hold non-standard residues; d marks the D form. Peptide text beside a SMILES is read from it. Phe(3-F) = N[C@@H](Cc1cccc(F)c1)C(=O)O; hPhe = N[C@@H](CCc1ccccc1)C(=O)O; Abu = CC[C@H](N)C(=O)O; azaGly = NNC(=O)O

Columns and labels:
Assay type in all cases: biochemical
Human liver cathepsin L = molecular target: T1, Human liver cathepsin L (Homo sapiens, UniProt P07711); test: Human liver cathepsin L assay
T1 construct: Human liver cathepsin L (Enzyme System Products, Catl-1); purchased Enzyme System Products Catl-1; host or cells: human liver
Experimental: Human Liver Catheosin L Assay
Using this assay, the selectivity of a compound of the invention for hDPP-I over human cathepsin L was determined, using a fluorogenic substrate.
Human liver cathepsin L (Enzyme System Products, Catl-1; 5 μL of a 1.61 μU/IμL stock) was solubilized in 2500 μL enzyme buffer. Prior to running experiment, 1 μL 0.5 M DTT/100 μL enzyme Solution was added. inoubated for 5 minutes on ice then added to reaction mixture.
Z-Phe-ARG-AFC*TFA (Enzyme System Products AF052; 15.6 mg) was dissolved in 1 mL DMSO, giving a 20 mM solution.
The assay was performed in 96-well plates. 50 μL assay buffer was added to the well followed by 25 μL reference inhibitor (cystatin, stock 1 mg/mL, diluted with assay buffer to give 25 nM in assay) or a compound of the invention (diluted with assay buffer to give 10 μM in the assay). Then 25 μL (80 nU) enzyme was added, and 1 min. later (at 37° C.) 100 μL substrate (10 μM in the assay) was added. The excitation wavelength was 400 nm, and the emission was measured at 505 nm for 10-20 minutes at 37° C. Each measurement was made in duplicate. In the software (SOFTmax Pro) used for data collection from the fluorometer (Molecular Devices: Gemini XS), it was ensured that the measured slopes were linear (R^2>0.99). Data were exported to GraphPad Prism and nonlinear regression was performed using the option Sigmoidal dose-response (variable slope).

Human cathepsin G = molecular target: T2, Human cathepsin G (Homo sapiens, UniProt P08311); test: Human cathepsin G assay
T2 construct: purchased Calbiochem 219373
T2 sequence (P08311 21-244): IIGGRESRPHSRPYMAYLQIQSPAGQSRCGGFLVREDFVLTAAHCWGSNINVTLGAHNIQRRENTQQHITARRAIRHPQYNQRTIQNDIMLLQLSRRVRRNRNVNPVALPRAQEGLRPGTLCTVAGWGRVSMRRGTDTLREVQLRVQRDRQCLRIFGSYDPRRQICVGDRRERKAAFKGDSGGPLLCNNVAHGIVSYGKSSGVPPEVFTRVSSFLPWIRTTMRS
Experimental: Using this assay, the selectivity of a compound of the invention for hDPP-I over human cathepsin G was determined, using a chromogenic substrate.
Buffer containing 100 mM Tris/HCl pH 8.3 (25° C.), 500 mM NaCl, and 20 mM CaCl2 prepared. DTNB (5,5′-dithio-bis(2-nitrobenzoic acid)) was added just prior to experiment (10 μL 1.25 mM/well).
Human cathepsin G (Calbiochem Cat # 219373, 50 ng/μL 0.1 mU/μL stock) was reconstituted in 50 mM sodium acetate and 150 mM NaCl (pH 5.5), and stored at −20° C. Diluted to 2 ng/μL in buffer just prior to experiment.
Suc-Ala-Ala-Pro-Phel-SBzl (Bachem Cat # 4009924.0050) diluted to 1 mM in buffer from 10 mM stock in buffer. Km determined to 100-200 μM.
The assay was performed in 96-well plates. 60 μL assay buffer was added to the well followed by 10 μL DTNB (1.25 mM), and 10 μL of a compound of the invention (100 μM, diluted with assay buffer to give 10 μM in the assay). Then 10 μL (2 ng/μL) enzyme was added, and 10 min. later (at 37° C.) 10 μL substrate (100 μM final concentration) was added. The absorption was measured at 410 nm for 10 minutes at 37° C. Each measurement was made in duplicate. In the software (SOFTmax Pro) used for data collection from the UV-spectrometer it was ensured that the measured slopes were linear (R^2>0.99). […]

Human liver cathepsin H = molecular target: T3, Human liver cathepsin H (Homo sapiens, UniProt P09668); test: Human liver cathepsin H assay
T3 construct: Human liver catheptin H (Enzyme System Products Cath-1; 25 μg); purchased Enzyme System Products Cath-1; host or cells: human liver
T3 sequence (P09668 98-335): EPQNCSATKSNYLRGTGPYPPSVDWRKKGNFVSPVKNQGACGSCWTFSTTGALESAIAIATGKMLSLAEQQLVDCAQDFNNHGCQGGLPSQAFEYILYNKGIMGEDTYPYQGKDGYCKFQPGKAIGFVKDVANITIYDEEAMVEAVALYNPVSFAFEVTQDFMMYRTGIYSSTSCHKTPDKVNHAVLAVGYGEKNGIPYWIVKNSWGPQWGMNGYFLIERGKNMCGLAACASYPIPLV
Experimental: Human Liver Cathepsin H Assay
Using this assay, the selectivity of a compound of the invention for hDPP-I over human cathepsin H was determined, using a fluorogenic substrate.
Human liver catheptin H (Enzyme System Products Cath-1; 25 μg) was solubilized in 60 μL enzyme buffer (giving a stock with a concentration of 417 ng/μL). Enzyme stock (5 μL) was diluted with 1245 μL enzyme-buffer. Prior to running experiment 1 μL 0.5 M DTT/100 μL enzyme solution was added. Incubated for 5 minutes on ice, then added to reaction mixture.
ARG-AFC*2HBR (Enzyme System Products AF002; 10.6 mg) was dissolved in 1 mL DMSO, giving a 20 mM solution. Km for this substrate has been determined to be 27 μM
The assay was performed in 96-well plates. 50 μL assay buffer was added to the well followed by 25 μL reference inhibitor (cystatin; stock 1 mg/mL, diluted with assay buffer to give 10 nM in assay) or a compound of the invention (diluted with assay buffer to give 10 μM in the assay). Then 25 μL (40 ng) enzyme was added, and 1 min. later (at 37° C.), 100 μL ARG-AFC substrate (15 μM in the assay) was added. The excitation wavelength was 400 nm, and the emission was measured at 505 nm for 10-20 minutes at 37° C. […] In the software (SOFTmax Pro) used for data collection from the fluorometer (Molecular Devices: Gemini XS) it was ensured that the measured slopes were linear (R^2>0.99). […]

T1 sequence (P07711 114-333): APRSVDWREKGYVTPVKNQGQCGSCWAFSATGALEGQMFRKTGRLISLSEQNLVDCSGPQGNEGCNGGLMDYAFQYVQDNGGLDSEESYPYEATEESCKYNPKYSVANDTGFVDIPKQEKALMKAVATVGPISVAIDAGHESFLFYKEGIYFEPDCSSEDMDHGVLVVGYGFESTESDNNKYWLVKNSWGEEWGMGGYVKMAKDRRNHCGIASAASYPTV

For `CC[C@H](N)C(=O)NNC(=O)N[C@@H](CCc1ccccc1)C(=O)N[C@@H](Cc1cccc(F)c1)C(N)=O` [Example 11, 1-(2S-2-Aminobutanoyl)-4-[2S-N-[2S-3-(m-fluorophenyl)propan-2-yl-amide]-4-phenylbutan-2-yl-amide]semicarbazide] (H-[Abu][azaGly][hPhe][Phe(3-F)]-NH2), the “Inhibition of Cathepsin L (in words)” value (Human liver cathepsin L) was “does not inhibit”, the IC50 (Human liver cathepsin L; human liver cathepsin L, 10 μM cutoff, read-out: Secondary enzymatic screening (10 μM cutoff or IC50) Cathepsin L) was > 10 µM and the “Inhibition of Cathepsin G (in words)” value (Human cathepsin G) was “does not inhibit”. The IC50 (Human cathepsin G; human cathepsin G, 10 μM cutoff, read-out: Secondary enzymatic screening (10 μM cutoff or IC50) Cathepsin G) was > 10 µM, the “Inhibition of Cathepsin H (in words)” value (Human liver cathepsin H) was “does not inhibit” and the IC50 (Human liver cathepsin H; human liver cathepsin H, read-out: Secondary enzymatic screening (10 μM cutoff or IC50) Cathepsin H) was 3.2 µM.
